≈ marks a conversion by molar mass, not a printed value. Where two headings read alike, the source gives them in different places.
How the values were obtained:
[1] = test system: S. aureus SA1199B; test: MIC assay (MHB microtitre, MTT); assay type: cell-based; conditions: Staphylococcus aureus
[2] = test system: P. aeruginosa K1119; test: MIC assay (MHB microtitre, MTT); assay type: cell-based; conditions: Pseudomonas aeruginosa
[3] = test system: P. aeruginosa K767; test: MIC assay (MHB microtitre, MTT); assay type: cell-based; conditions: Pseudomonas aeruginosa
[4] = test system: S. aureus ATCC25923; test: MIC assay (MHB microtitre, MTT); assay type: cell-based; conditions: Staphylococcus aureus
[5] = test system: M. smegmatis MC2 2700; test: MIC assay (MHB microtitre, MTT); assay type: cell-based; conditions: Mycolicibacterium smegmatis, MC22700
[6] = test system: M. phlei ATCC11758; test: MIC assay (MHB microtitre, MTT); assay type: cell-based; conditions: Mycolicibacterium phlei
[7] = test system: M. fortuitum ATCC6841; test: MIC assay (MHB microtitre, MTT); assay type: cell-based; conditions: Mycolicibacterium fortuitum
[8] = test system: M. smegmatis ATCC14468; test: MIC assay (MHB microtitre, MTT); assay type: cell-based; conditions: Mycolicibacterium smegmatis
[9] = test system: MRSA and penicillin-resistant Staphylococcus aureus; conditions: cited from earlier work
[10] = has to be stabilised as a salt; cited from earlier work
[11] = test system: panel of multidrug-resistant strains of Staphylococcus aureus; conditions: inventors' 2006 poster; cited from earlier work
[12] = test system: S. aureus RN4220; test: MIC assay (MHB microtitre, MTT); assay type: cell-based; conditions: Staphylococcus aureus
Method: Bacteria were cultured on nutrient agar (Oxoid) and incubated for 24 h at 37 ° C. prior to MIC determination. […] An inoculum density of 5×10^5 cfu of S. aureus was prepared in normal saline (9 g/l) by comparison with a 0.5 MacFarland turbidity standard. The inoculum (125 μl) was added to all wells and the microtitre plate was incubated at 37° C. for 18 h. For MIC determination, 20 μl of a 5 mg/ml methanolic solution of 3-[4,5-dimethylthiazol-2-yl]-2,5-diphenyltetrazolium bromide (MTT; Sigma) was added to each of the wells and incubated for 20 min. Bacterial growth was indicated by a colour change from yellow to dark blue. The MIC was recorded as the lowest concentration at which no growth was observed.

[13] = test system: S. aureus XU212; test: microbe, parasite or virus in culture; assay type: cell-based; conditions: Staphylococcus aureus
[14] = test system: S. aureus EMRSA16; test: MIC assay (MHB microtitre, MTT); assay type: cell-based; conditions: Staphylococcus aureus
[15] = test system: S. typhimurium L354; test: MIC assay (MHB microtitre, MTT); assay type: cell-based; conditions: Salmonella enterica
[16] = test system: S. typhimurium L10; test: MIC assay (MHB microtitre, MTT); assay type: cell-based; conditions: Salmonella enterica
[17] = test system: S. aureus EMRSA15; test: MIC assay (MHB microtitre, MTT); assay type: cell-based; conditions: Staphylococcus aureus
[18] = test system: NCTC6571 Staphylococcus aureus; test: MIC on IsoSensitest agar / broth, standard laboratory strain; assay type: cell-based; conditions: in broth and agar, read-out: minimum inhibitory concentration
Method: (§1) Compound 7 was tested using bacteria which were recent clinical isolates, or were standard reference controls. The clinical isolates were selected to represent important resistant phenotypes currently prevalent in the UK and worldwide. They included (i) methicillin-resistant Staphylococcus aureus (MRSA), specifically the epidemic (E)MRSA-15 and 16 strains dominant in the UK; (ii) methicillin-resistant coagulase negative staphylococci (i.e. S. epidermidis, S. haemolyticus); (iii) vancomycin-resistant as well as susceptible Enterococcus faecalis and E. faecium; (iv) penicillin-resistant and—susceptible Streptococcus pneumoniae; (v) group A streptococci (=S. pyogenes, which remain universally susceptible to penicillin) and (vi) Clostridium difficile.
(§2) MICs were determined on IsoSensitest agar (ISA) (method of British Society for Antimicrobial Chemotherapy, http://www.bsac.org.uk) or by microdilution in IsoSensitest Broth (ISB). Both media were from Oxoid, Basingstoke, Hants. Plates were variously incubated, at 35-37° C., in air, air enriched with 5% CO2 or under anaerobic conditions.

[19] = test system: Streptococcus pneumoniae; test: as above; assay type: cell-based; conditions: ATCC29212; in broth and agar; Streptococcus pneumoniae ATCC 29212; read-out: minimum inhibitory concentration
Method: as §1, §2

[20] = test system: Enterococcus faecalis ATCC29212; test: as above; assay type: cell-based; conditions: in broth and agar, read-out: minimum inhibitory concentration
Method: as §1, §2

[21] = test system: methicillin-sensitive Staphylococcus aureus; test: MIC on IsoSensitest agar / broth, clinical isolates; assay type: cell-based; conditions: in broth and agar, methicillin-sensitive S. aureus, read-out: minimum inhibitory concentration
Method: as §1, §2

[22] = test system: vancomycin-resistant and vancomycin-sensitive Enterococcus faecium; test: as above; assay type: cell-based; conditions: in broth and agar, vancomycin-resistant and -sensitive E. faecium, read-out: minimum inhibitory concentration
Method: as §1, §2

[23] = test system: penicillin-resistant and penicillin-sensitive Streptococcus pneumoniae; test: as above; assay type: cell-based; conditions: in broth and agar, penicillin-resistant and -sensitive S. pneumoniae, read-out: minimum inhibitory concentration
Method: as §1, §2

[24] = test system: methicillin-resistant coagulase-negative Staphylococcus epidermidis; test: as above; assay type: cell-based; conditions: in broth and agar, methicillin-resistant S. epidermidis, read-out: minimum inhibitory concentration
Method: as §1, §2

[25] = test system: methicillin-sensitive coagulase-negative Staphylococcus epidermidis; test: as above; assay type: cell-based; conditions: in broth and agar, methicillin-sensitive S. epidermidis, read-out: minimum inhibitory concentration
Method: as §1, §2

[26] = test system: vancomycin-resistant and vancomycin-sensitive Enterococcus faecalis; test: as above; assay type: cell-based; conditions: in broth and agar, vancomycin-resistant and -sensitive E. faecalis, read-out: minimum inhibitory concentration
Method: as §1, §2

[27] = test system: methicillin-sensitive coagulase-negative Staphylococcus haemolyticus; test: as above; assay type: cell-based; conditions: in broth and agar, methicillin-sensitive S. haemolyticus, read-out: minimum inhibitory concentration
Method: as §1, §2

[28] = test system: epidemic methicillin-resistant Staphylococcus aureus 15 and 16; test: as above; assay type: cell-based; conditions: in broth and agar, EMRSA-15 and 16 clinical isolates, read-out: minimum inhibitory concentration
Method: as §1, §2

[29] = test system: Group A Streptococcus; test: as above; assay type: cell-based, S. pyogenes; conditions: in broth and agar, read-out: minimum inhibitory concentration
Method: as §1, §2

## CCn1cc(C(=O)O)c(=O)c2cc(F)c(N3CCNCC3)cc21 [Norfloxacin, norfloxacin, reference compound]
[1]
  MIC: 32 µg/mL (≈ 100 µM)
[2]
  MIC: 2 µg/mL (≈ 6.26 µM)
[3]; P. aeruginosa K767, read-out: MIC
  MIC: 2 µg/mL (≈ 6.26 µM)
[4]
  MIC: 1 µg/mL (≈ 3.13 µM)

## NNC(=O)c1ccncc1 [Isoniazid]
[5]
  MIC: 2 µg/mL (≈ 14.6 µM)
[6]
  MIC: 2 µg/mL (≈ 14.6 µM)
[7]
  MIC: 4 µg/mL (≈ 29.2 µM)
[8]
  MIC: 2 µg/mL (≈ 14.6 µM)

## CC(C)=CCC[C@]1(C)[C@@H](CC=C(C)C)C[C@@]2(CC=C(C)C)C(=O)[C@]1(C(=O)C(C)C)C(=O)C(CC=C(C)C)=C2O [Hyperforin]
[9]
  Minimum Inhibitory Concentration (MIC): 0.1 to 0.5 µg/mL
[10]
  stability: unstable

## O=c1c2cc(O)ccc2oc2cccc(O)c12 [1,7-dihydroxyxanthone]
[11]
  minimum inhibitory concentration: 128 to 256 µg/mL

## CCC(C)C(=O)c1c(O)cc(O)cc1OC/C=C(\C)CCC=C(C)C (centres unmarked) [Compound 7]
[5]
  MIC: 4 µg/mL (≈ 11.5 µM)
[12]
  MIC: 1 µg/mL (≈ 2.89 µM)
[1]
  MIC: 1 µg/mL (≈ 2.89 µM)
[13]
  MIC: 1 µg/mL (≈ 2.89 µM)
[2]
  MIC: > 512 µg/mL
[14]
  MIC: 1 µg/mL (≈ 2.89 µM)
[15]
  MIC: > 512 µg/mL
[6]
  MIC: 4 µg/mL (≈ 11.5 µM)
[16]
  MIC: > 512 µg/mL
[17]
  MIC: 0.5 µg/mL (≈ 1.44 µM)
[18]
  MIC: 4 µg/mL (≈ 11.5 µM)
[19]
  MIC: 4 µg/mL (≈ 11.5 µM)
[20]
  MIC: 4 µg/mL (≈ 11.5 µM)
[3]; K767
  MIC: > 512 µg/mL
[21]
  MIC: 2 to 8 µg/mL (≈ 5.77 to 23.1 µM)
[22]
  MIC: 2 to 4 µg/mL (≈ 5.77 to 11.5 µM)
[23]
  MIC: 2 to 4 µg/mL (≈ 5.77 to 11.5 µM)
[24]
  MIC: 2 to 8 µg/mL (≈ 5.77 to 23.1 µM)
[25]
  MIC: 2 to 4 µg/mL (≈ 5.77 to 11.5 µM)
[26]
  MIC: 4 µg/mL (≈ 11.5 µM)
[27]
  MIC: 16 µg/mL (≈ 46.2 µM)
[28]
  MIC: 2 to 4 µg/mL (≈ 5.77 to 11.5 µM)
[7]
  MIC: 8 µg/mL (≈ 23.1 µM)
[29]
  MIC: 4 µg/mL (≈ 11.5 µM)
[8]
  MIC: 4 µg/mL (≈ 11.5 µM)
[4]
  MIC: 1 µg/mL (≈ 2.89 µM)

## Cc1onc(-c2ccccc2)c1C(=O)N[C@@H]1C(=O)N2[C@@H]1SC(C)(C)[C@@H]2C(=O)O [Oxacillin, reference compound]
[14]
  MIC: 512 µg/mL (≈ 1280 µM)
[17]
  MIC: 16 µg/mL (≈ 39.9 µM)

## CC[C@H]1OC(=O)[C@H](C)[C@@H](O[C@H]2C[C@@](C)(OC)[C@@H](O)[C@H](C)O2)[C@H](C)[C@@H](O[C@@H]2O[C@H](C)C[C@H](N(C)C)[C@H]2O)[C@](C)(O)C[C@@H](C)C(=O)[C@H](C)[C@@H](O)[C@]1(C)O [Erythromycin, erythromycin, reference compound]
[12]
  MIC: 128 µg/mL (≈ 174 µM)

## CC[C@@H](CO)NCCN[C@@H](CC)CO [Ethambutol]
[5]
  MIC: 0.5 µg/mL (≈ 2.45 µM)
[6]
  MIC: 0.5 µg/mL (≈ 2.45 µM)
[7]
  MIC: 0.5 µg/mL (≈ 2.45 µM)
[8]
  MIC: 0.5 µg/mL (≈ 2.45 µM)
